Experimental data reported in US8410116B2, “Bis(styryl)pyrimidine or bis(styryl)benzene compounds, pharmaceutically acceptable salts thereof, preparation method thereof, and pharmaceutical composition for prevention or treatment of diseases featuring amyloids comprising the same as an active ingredient” (Korea Institute of Science and Technology, priority 2009, dated 2013).

Columns and labels:
beta amyloid (1-42) [1] = molecular target: beta amyloid (1-42) (Homo sapiens, UniProt P05067); experiment: Inhibitory activity against beta amyloid fibril formation (ThT fluorescence); assay type: biochemical; details: compound 10 μM, beta amyloid (1-42) 25 μM, 1 hr room temperature, beta amyloid alone (control) = 100
Protocol: The compounds of the present invention were assayed for inhibitory activity against the formation of beta amyloid fibrils as a function of ThT fluorescence intensity as follows. Beta amyloid (1-42) and each of the compounds of Examples 1 to 27 were dissolved in DMSO and diluted with PBS (phosphate-buffered saline, pH 7.4). The final concentrations of beta amyloid (1-42) (control) and each of the compounds of Examples 1 to 27 were set at 25 μM and 10 μM, respectively. The dilutions were incubated at room temperature for 1 hr before a solution of thioflavin T (ThT, 5 μM, pH 8.5) in glycin-NaOH buffer was added thereto. Fluorescence was measured at 450 nm for excitation (slit 10 nm) and […] for emission (slit 10 nm) on 96-well microplates using a multilabel fluorescence counter.

HT-22 cells = experiment: Cytotoxicity in HT-22 cell (MTT); assay type: cell-based, murine; details: compound 25 μM, 18 hrs
Protocol: The following experiment was performed with HT-22 cells in order to examine the cytotoxicity of the compounds of the Examples in accordance with the present invention.
(§1) The murine hippocampal neuronal cell line HT-22 was incubated at 37° C. in DMEM (Dulbecco's Modified Eagle's Medium) supplemented with 10% FBS (fetal bovine serum) and 1% penicillin/streptomycin in a 5% CO2 incubator. Before testing, HT-22 cells were seeded at a density of 5×10^3 cells/well onto 96-well plates containing serum-free DMEM and incubated for 1 hr. Afterwards, each of the compounds of Examples 1 to 27 was added at a concentration of 25 μM to each well before incubation for 18 hrs. 5 mg/ml MTT (3-(4,5-dimethyl-2-thiozolyl)-2,5-diphenyl-2H-tetrazolium bromide) solution was added in an amount of 15 μl per well and incubated for 4 hrs. A solubilization solution (10% SDS, 50% dimethylformamide, pH 4.7) was added in an amount of 100 μl to each well, followed by incubation for 18 hrs. Absorbance at 570 nm/630 nm was read on a microplate reader.

[2] = test system: HT-22 cells incubated with beta amyloid (Aβ25-35); experiment: Alleviating effect on beta amyloid toxicity in HT-22 cells (MTT); assay type: cell-based, murine; details: Mus musculus, compound pre-incubated 1 hr, then 25 μM beta amyloid (Aβ25-35) for 18 hrs, Aβ25-35 line = toxin alone, read-out: Cell Survival (%)
Protocol: as §1
The following experiment was performed in order to examine the ability of the compounds of the Examples in accordance with the present invention to alleviate beta amyloid toxicity. HT-22 cells were cultured and incubated with the compounds of Examples 1 to 27 for 1 hr in the same manner as in Example 2. Cell necrosis was induced by beta amyloid toxicity. For this, the cells were incubated with 25 μM of beta amyloid (Aβ25-35) for 18 hrs. Subsequently, a 5 mg/ml MTT solution was added in an amount of 15 μl to each well, followed by incubation for 4 hrs. Then, the cells were again incubated for 18 hrs with 100 μl/well of the solubilization solution. Absorbance at 570 nm/630 nm was read on a microplate reader.

[3] = test system: beta amyloid (1-42) injected mice; experiment: Y-maze task, acute Alzheimer's disease model; assay type: in vivo; details: mice i.c.v. injected with beta amyloid (1-42), compounds administered for 2 days, test on Day 2
Protocol: (§2) Mice 4-5 weeks old, each weighing 20˜25 g, were divided into groups of six. Intracerebroventricular injection was performed with a 50 μl Hamilton microsyringe fitted with a disposable 26-gauge needle as described by Laursen and Belknap (Laursen & Belknap, J. Pharmacol. Methods. 1986, 16, 355). It was inserted 2.4 mm deep into the bregma. All samples were administered to groups of 10 via oral routes or food pellets. After the intracerebroventricular injection, the compounds of the present invention were administered for 2 days to the mice which were then subjected to the Y-maze test on Day 2, the cognition test on Days 2 and 3, the passive avoidance test on Days 3 and 4, and the water maze test on Days 3 to 7. All data were averages of 6 measurements (mice).
(§3) Short-term memory was assessed by spontaneous alternation behavior in the Y-maze task. Spontaneous alternation behavior is considered to reflect spatial working memory, which is a form of short-term memory. A mouse was placed in one arm of a Y-maze and allowed to freely pass the three arms for 8 min. Spontaneous alternation behavior was defined as successive entries into the three arms. Percentage spontaneous alternation was calculated as the ratio of actual to possible alternations […], multiplied by 100.

[4] = test system: beta amyloid (1-42) injected mice; experiment: Cognitive performance task, acute Alzheimer's disease model; assay type: in vivo; set-up: Cognition % of control: concentration or dose not given beside the values
Protocol: as §2
(§4) For the cognitive performance task, two identical substances were respectively placed 5 cm apart from two corners and the time it took for a mouse to investigate the given and new substances was measured. Investigation was defined as the condition in which a mouse sniffed with the head directing toward the substance within a diameter of 2 cm or touched the substance.

[5] = test system: beta amyloid (1-42) injected mice; experiment: Passive avoidance test, acute Alzheimer's disease model; assay type: in vivo; set-up: Passive Avoidance % of control: concentration or dose not given beside the values
Protocol: as §2
(§5) A passive avoidance test was performed as described in the literature (Song et al. J. Neurochem., 1998, 71, 875). Used was a passive avoidance box which was divided into two compartments: a lighted one and a dark one, separated by an automatic guillotine door. For training, mice were placed in the lighted compartment and electrically shocked with 0.25 mA for 1 sec whenever they entered the darkened compartment. 24 hours after training, the mice were placed in the lighted compartment and measured for latency time before entering the darkened compartment.

[6] = test system: beta amyloid (1-42) injected mice; experiment: Water maze test, acute Alzheimer's disease model; assay type: in vivo; details: mice injected with beta amyloid (1-42), Days 3 to 7
Protocol: as §2
In a water maze test, a mouse, when released from a randomly selected quadrant on each trial, was allowed to swim around the pool in search of an exit while the time taken to reach the platform (latency) was recorded.

[7] = test system: beta amyloid (1-42) injected mice; experiment: Behavior tests with acute AD model taken together (Y-maze, cognitive performance, passive avoidance); assay type: in vivo
Protocol: as §2, §3, §4, §5

[8] = test system: double transgenic mice with mutations in both APP and presenilin 1; experiment: Y-maze task and cognitive performance tests in transgenic mice; assay type: in vivo; details: food pellets (3 mg/pellet) for 2 months, 10 month old transgenic mice
Protocol: (§6) Double transgenic mice with mutations in both APP and presenilin 1 were used for the tests. The double transgenic mice, each weighing 26-39 g, were eight months old. They were divided into groups of 10 and administered for 2 to 3 months with the compound of Example 1 through food pellets (3 mg/pellet) before conducting the behavior tests.
After administration of the compound of Example 1 for 2 months (for 10 month old mice), the mice were tested for learning and memory through the Y-maze task and cognitive performance tests.

[9] = test system: double transgenic mice with mutations in both APP and presenilin 1; experiment: Context fear conditioning in transgenic mice; assay type: in vivo
Protocol: as §6
A memory test was performed in context fear conditioning. Five trials of tone-shock pairing of CS-US (conditioned stimulus-unconditioned stimulus) were given to mice. On the next day, the mice were left in the stimulated context under no stimulus conditions and observed for freezing. […] During the test, there was no difference in average body weight between the two groups.

amyloid plaques = experiment: Amyloid plaque counts (Congo red) in cerebra of transgenic mice; assay type: in vivo; details: cerebral cortex and hippocampus, 11 months old transgenic mice, versus control
Protocol: (§7) In order to examine whether this effect resulted from inhibitory activity against the deposition of beta amyloid or from a decrease in the level of beta amyloid, the cerebra of the transgenic mice were immunohistochemically analyzed. In this regard, after being removed from the transgenic mice which were 11 months old upon completion of the behavior test, the right cerebral hemispheres were measured for amyloid plaque levels in the cerebral cortex and hippocampus using an immunostaining or ELISA (Enzyme-linked immunosorbent assay) method.
(§8) Amyloid plaques were stained with Congo red and counted. […] FIG. 4D gives neuronal cell count data, showing a larger crowd in the group treated with the compound of Example 1.

beta amyloid (1-40) = experiment: ELISA for beta amyloid (1-40) in cerebra of transgenic mice; assay type: in vivo; details: 11 months old transgenic mice, versus control
Protocol: as §7, §8

beta amyloid (1-42) [10] = experiment: ELISA for beta amyloid (1-42) in cerebra of transgenic mice; assay type: in vivo; details: 11 months old transgenic mice, versus control
Protocol: as §7, §8

neurons = experiment: Neuronal cell count in cerebra of transgenic mice; assay type: in vivo; details: 11 months old transgenic mice, versus control
Protocol: as §7, §8

Chain of beta amyloid (1-42) (Homo sapiens, UniProt P05067) (P05067 672-713 limits assumed): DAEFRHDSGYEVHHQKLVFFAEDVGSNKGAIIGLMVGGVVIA

## COc1ccc(/C=C/c2cc(/C=C/c3ccc(OC)c(O)c3)ncn2)cc1O [Ex. 1, (E,E)-4,6-Bis(3′-hydroxy-4′-methoxystyryl)pyrimidine]
Beta amyloid (1-42) [1]
  remaining activity at 10 µM: 19.1 ± 0.6%
HT-22 cells
  Cell Survival (%): 135.6 ± 6.1%
[2]
  viability at 25 µM: 91.8 ± 8.8%
[3]
  Y-Maze Spontaneous Alternation (%): 72.2%
[4]; mice i.c.v. injected with beta amyloid (1-42), test on Days 2 and 3
  Cognition Preference (investigation time for new matter/total investigation time): 0.59 ± 0.03
[4]; preference relative to control mice
  Cognition % of control: 92%
[5]; compared to beta amyloid (1-42) injected mice, % of control
  Improvement in passive avoidance performance: highest improvement
[5]; latency relative to control mice
  Passive Avoidance % of control: 80.9%
[5]; mice i.c.v. injected with beta amyloid (1-42), test on Days 3 and 4, 24 hours after training
  Passive Avoidance Latency: 144.2 s
[6]
  Spatial learning ability in water maze (latency over sessions), FIG. 1: recover spatial learning ability
[7]; 50, 100, 200 mg/kg p.o., Y-maze, cognitive performance, passive avoidance
  Learning and memory improvement, dose dependence, FIG. 2: dose-dependent manner
[7]; data of Table 6, with statistical significance
  Memory and learning of beta amyloid (1-42) injected mice (in words): increased memory
[8]
  Learning and memory in Y-maze and cognitive performance, FIGS. 3A and 3B: memory impairment was alleviated
[9]; transgenic mice during the test, treated versus control group
  Average body weight: no difference
[9]; transgenic mice, compared to control
  Freezing in context fear conditioning, FIG. 3C: longer time freezing
Amyloid plaques
  Counts of amyloid plaques stained with Congo red, FIG. 4A: smaller
Beta amyloid (1-40)
  Level of beta amyloid (1-40), ELISA, FIG. 4B: decreasing pattern
Beta amyloid (1-42) [10]
  Level of beta amyloid (1-42), ELISA, FIG. 4C: decreasing pattern
neurons
  Neuronal cell count, FIG. 4D: larger crowd
